Measured values reported in patent US20180110824A1, “Macrocyclic Modulators of the Ghrelin Receptor” (Ocera Therapeutics, Inc., priority 2016, published 2018).
Read-outs that look alike come from different tables or passages of the source.

Molecular target: T1, human growth hormone secretagogue receptor (hGHS-R1a) (Homo sapiens, UniProt Q92847)
T1 construct: purchased PerkinElmer BioSignal #RBHGHSM; host or cells: HEK-293, stably transfected
Test: Competitive radioligand binding assay (ghrelin receptor), [125I]-ghrelin displacement on GHS-R/HEK 293 membranes
Protocol: The competitive binding assay at the human growth hormone secretagogue receptor (hGHS-R1a) was carried out analogously to assays described in the literature.
Multiscreen Harvest plates-GF/C (Millipore, #MAHFC1H60) • 4. […] Bottom seal (Millipore, #MATAH0P00) • 7. […] Binding Buffer: 25 mM Hepes (pH 7.4), 1 mM CaCl2, 5 mM MgCl2, 2.5 mM EDTA, 0.4% BSA
Competition experiments were performed in a 300 μl filtration assay format. • 1. 220 μL of membranes diluted in binding buffer • 2. 40 μL of compound diluted in binding buffer • 3.
Compounds were provided frozen on dry ice at a stock concentration of 10 mM diluted in 100% DMSO and stored at −80° C. until the day of testing. On the test day, compounds were allowed to thaw at rt O/N and then diluted in assay buffer according to the desired test concentrations. Under these conditions, the maximal final DMSO concentration in the assay was 0.1%.
Plates were sealed with TopSeal-A, vortexed gently and incubated at rt for 30 min. The reaction was arrested by filtering samples through Multiscreen Harvest plates (pre-soaked in 0.5% polyethyleneimine) using a Tomtec Harvester, washed 9 times with 500 μL of cold 50 mM Tris-HCl (pH 7.4, 4° C.), and then plates were air-dried in a fumehood 30 min. A bottom seal was applied to the plates prior to the addition of 25 μL of MicroScint-0 to each well. […] Results were expressed as counts per minute (cpm).
Data were analyzed by GraphPad Prism (GraphPad Software, San Diego, Calif.) using […] non-linear regression analysis.
where total and non-specific binding represent the cpm obtained in the absence or presence of 1 μM ghrelin, respectively.
• 1. Binding performed on membranes prepared from HEK293 expressing the transfected, cloned human ghrelin receptor (hGHS-R1a). • 2. […] Ghrelin (unlabeled, 1 μM) was used to determine non-specific binding. • 4.

[1] = Table 3B, binding activity at the human ghrelin receptor, read-out: Ki
[2] = Binding activity at the human ghrelin receptor, [125I]-ghrelin displacement, read-out: Ki

T1 sequence (Q92847 whole entry): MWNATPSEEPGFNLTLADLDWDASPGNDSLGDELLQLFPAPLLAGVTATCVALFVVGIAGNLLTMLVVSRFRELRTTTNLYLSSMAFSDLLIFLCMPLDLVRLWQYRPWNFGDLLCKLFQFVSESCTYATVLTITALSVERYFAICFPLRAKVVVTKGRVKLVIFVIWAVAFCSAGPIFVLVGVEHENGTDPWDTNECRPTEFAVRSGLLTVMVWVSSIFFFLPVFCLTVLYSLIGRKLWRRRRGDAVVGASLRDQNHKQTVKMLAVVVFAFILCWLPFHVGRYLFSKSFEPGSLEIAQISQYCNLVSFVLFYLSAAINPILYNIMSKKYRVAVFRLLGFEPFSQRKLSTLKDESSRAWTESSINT

Structure (SMILES)	Ki [2] [nM]	also measured
CCC(C)[C@@H]1NCCOc2ccccc2/C=C/CNC(=O)[C@H](Cc2ccc(F)c(F)c2)NC(=O)C2(CCCC2)NC1=O (some centres unmarked) [331a]	–	Ki [1]: 10 to 100 nM
CCC(C)C1NCCOc2ccccc2C=CCNC(=O)C(Cc2cccc(C(F)(F)F)c2)NC(=O)C2(CCCC2)NC1=O (centres unmarked) [332a]	–	Ki [1]: 10 to 100 nM
CCC(C)[C@@H]1NCCCc2ccccc2/C=C/CNC(=O)[C@@H](Cc2ccc(F)cc2)NC(=O)[C@@H](C)N(C)C1=O (some centres unmarked) [353a]	–	Ki [1]: 10 to 100 nM
CC(C)C[C@@H]1NCCOc2ccccc2/C=C/CNC(=O)[C@H](Cc2c[nH]cn2)NC(=O)C2(CCCC2)NC1=O [444a]	–	Ki (Table 3D, read-out: Ki): > 10000 nM
CCC[C@@H]1NCCOc2ccccc2CCCNC(=O)[C@@H](Cc2ccccc2)NC(=O)[C@H]2CCCN2C1=O [Compound 221]	–	Ki (Table 3E, read-out: Ki): 100 to 1000 nM; Ki ([125I]-ghrelin displacement, GHS-R/HEK 293 membranes, class symbols, read-out: Binding Activity at the Human Ghrelin Receptor (Ki)): 100 to 1000 nM
CC(C)C[C@@H]1NCCOc2ccccc2/C=C/CNC(=O)[C@H](Cc2cccc3ccccc23)NC(=O)C2(CCCC2)NC1=O [compound 22]	10 to 100	–
CC[C@H](C)[C@@H]1NCCOc2ccccc2CCCNC(=O)[C@@H](Cc2cscn2)NC(=O)[C@@H](C)N(C)C1=O [compound 33]	100 to 1000	–
CC(C)C[C@@H]1NCCOCCNC(=O)[C@H](Cc2ccccc2)NC(=O)C2(CCCC2)NC1=O [compound 44]	> 10000	–
CCC[C@@H]1NC(=O)C2(CCCC2)NC(=O)[C@H](CC(C)C)NCCOc2ccccc2/C=C/CNC1=O [compound 48]	> 10000	–
CCC[C@@H]1NCCOc2ccccc2CCCNC(=O)[C@@H](C)NC(=O)CN(C)C1=O [compound 49]	> 10000	–
CCC[C@@H]1NCCOc2ccccc2CCCNC(=O)[C@@H](CCC(=O)O)NC(=O)CN(C)C1=O [compound 50]	> 10000	–
CCC[C@@H]1NCCOc2ccccc2CCCNC(=O)CNC(=O)CN(C)C1=O [compound 51]	> 10000	–
CCCC[C@H]1NC(=O)CN(C)C(=O)[C@H](CCC)NCCOc2ccccc2CCCNC1=O [compound 52]	100 to 1000	–
CCC[C@@H]1NCCOc2ccccc2CCCNC(=O)[C@@H](CCCN)NC(=O)CN(C)C1=O [compound 53]	> 10000	–
CCC[C@@H]1NCCOc2ccccc2CCCNC(=O)[C@@H](CO)NC(=O)CN(C)C1=O [compound 54]	> 10000	–
CCC[C@H]1NCCOc2ccccc2CCCNC(=O)[C@@H](Cc2ccccc2)NC(=O)CN(C)C1=O [compound 55]	1000 to 10000	–
CCC[C@H]1NCCOc2ccccc2CCCNC(=O)[C@H](Cc2ccccc2)NC(=O)CN(C)C1=O [compound 56]	> 10000	–
CCC[C@@H]1NCCOc2ccccc2CCCNC(=O)[C@H](Cc2ccccc2)NC(=O)CN(C)C1=O [compound 57]	100 to 1000	–
CCC[C@@H]1NCCOc2ccccc2CCCNC(=O)[C@@H](Cc2ccccc2)NC(=O)CNC1=O [compound 61]	100 to 1000	–
CCC[C@@H]1NCCOc2ccccc2CCCNC(=O)[C@@H](Cc2ccccc2)NC(=O)[C@H](CC(C)C)NC1=O [compound 62]	1000 to 10000	–

Structure (SMILES)	Ki [2] [nM]	also measured
CCC[C@@H]1NCCOc2ccccc2CCCNC(=O)[C@@H](Cc2ccccc2)NC(=O)[C@@H](CC(C)C)NC1=O [compound 63]	> 10000	–
CCC[C@@H]1NCCOc2ccccc2CCCNC(=O)[C@@H](Cc2ccccc2)NC(=O)[C@H](Cc2ccccc2)NC1=O [compound 64]	> 10000	–
CCC[C@@H]1NCCOc2ccccc2CCCNC(=O)[C@@H](Cc2ccccc2)NC(=O)[C@@H](Cc2ccccc2)NC1=O [compound 65]	1000 to 10000	–
CCC[C@@H]1NCCOc2ccccc2CCCNC(=O)[C@@H](Cc2ccccc2)NC(=O)C(C)(C)NC1=O [compound 66]	100 to 1000	–
CCC[C@@H]1NCCOc2ccccc2CCCNC(=O)[C@@H](Cc2ccccc2)NC(=O)C2(CCCC2)NC1=O [compound 67]	100 to 1000	–
CCC[C@@H]1NCCOc2ccccc2CCCNC(=O)[C@@H](Cc2ccccc2)NC(=O)[C@H](CCCCN)NC1=O [compound 68]	1000 to 10000	–
CCC[C@@H]1NCCOc2ccccc2CCCNC(=O)[C@@H](Cc2ccccc2)NC(=O)[C@@H](CCCCN)NC1=O [compound 69]	> 10000	–
CCC[C@@H]1NCCOc2ccccc2CCCNC(=O)[C@@H](Cc2ccccc2)NC(=O)[C@H](CCC(=O)O)NC1=O [compound 70]	> 10000	–
CCC[C@@H]1NCCOc2ccccc2CCCNC(=O)[C@@H](Cc2ccccc2)NC(=O)[C@@H](CCC(=O)O)NC1=O [compound 71]	> 10000	–
CN1CC(=O)N[C@H](Cc2ccccc2)C(=O)NCCCc2ccccc2OCCN[C@@H](CCC(=O)O)C1=O [compound 73]	> 10000	–
CN1CC(=O)N[C@H](Cc2ccccc2)C(=O)NCCCc2ccccc2OCCN[C@@H](CO)C1=O [compound 76]	> 10000	–
CCC[C@@H]1NCc2ccccc2Sc2ccccc2CNC(=O)[C@@H](Cc2ccccc2)NC(=O)CN(C)C1=O [compound 77]	100 to 1000	–
CN1CC(=O)NC(Cc2ccccc2)C(=O)NCCCc2ccccc2OCCNCC1=O (centres unmarked) [compound 80]	> 10000	–
CCCC1NCCOCCNC(=O)C(Cc2ccccc2)NC(=O)CN(C)C1=O (centres unmarked) [compound 81]	> 10000	–
CCCC1NCC/C=C/CCNC(=O)C(Cc2ccccc2)NC(=O)CN(C)C1=O (centres unmarked) [compound 83]	> 10000	–
CC(C)C[C@@H]1NCCOc2ccccc2CCCNC(=O)[C@H](C)NC(=O)C2(CCCC2)NC1=O [compound 87]	> 10000	–
CC(C)C[C@@H]1NCCOc2ccccc2CCCNC(=O)[C@H](Cc2ccc(O)cc2)NC(=O)C2(CCCC2)NC1=O [compound 88]	1000 to 10000	–
CC(C)C[C@@H]1NCCOc2ccccc2CCCNC(=O)[C@H](Cc2c[nH]c3ccccc23)NC(=O)C2(CCCC2)NC1=O [compound 89]	1000 to 10000	–
CC(C)C[C@@H]1NCCOc2ccccc2CCCNC(=O)[C@H](CCc2ccccc2)NC(=O)C2(CCCC2)NC1=O [compound 90]	1000 to 10000	–
CC(C)C[C@@H]1NCCOc2ccccc2CCCNC(=O)[C@H](CCCCN)NC(=O)C2(CCCC2)NC1=O [compound 91]	> 10000	–

Structure (SMILES)	Ki [2] [nM]	also measured
CC(C)C[C@@H]1NCCOc2ccccc2CCCNC(=O)[C@H](CCC(=O)O)NC(=O)C2(CCCC2)NC1=O [compound 92]	> 10000	–
CC(C)C[C@@H]1NCCOc2ccccc2CCCNC(=O)[C@H](Cc2ccccc2)NC(=O)C(C)(C)NC1=O [compound 95]	1000 to 10000	–
CC(C)C[C@H]1NCCOc2ccccc2CCCNC(=O)[C@H](Cc2ccccc2)NC(=O)C2(CCCC2)NC1=O [compound 96]	> 10000	–
CC(C)C[C@H]1NCCOc2ccccc2CCCNC(=O)[C@@H](Cc2ccccc2)NC(=O)C2(CCCC2)NC1=O [compound 98]	> 10000	–
C[C@@H]1NCCOc2ccccc2CCCNC(=O)[C@H](Cc2ccccc2)NC(=O)C2(CCCC2)NC1=O [compound 100]	100 to 1000	–
CCCC[C@@H]1NCCOc2ccccc2CCCNC(=O)[C@H](Cc2ccccc2)NC(=O)C2(CCCC2)NC1=O [compound 101]	100 to 1000	–
O=C1NC2(CCCC2)C(=O)N[C@@H](Cc2ccccc2)C(=O)NCCCc2ccccc2OCCN[C@H]1Cc1ccccc1 [compound 102]	100 to 1000	–
NCCCC[C@@H]1NCCOc2ccccc2CCCNC(=O)[C@H](Cc2ccccc2)NC(=O)C2(CCCC2)NC1=O [compound 103]	> 10000	–
O=C(O)CC[C@@H]1NCCOc2ccccc2CCCNC(=O)[C@H](Cc2ccccc2)NC(=O)C2(CCCC2)NC1=O [compound 104]	> 10000	–
O=C1NC2(CCCC2)C(=O)N[C@@H](Cc2ccccc2)C(=O)NCCCc2ccccc2OCCN[C@H]1CO [compound 105]	100 to 1000	–
CC(C)C[C@@H]1NCc2ccccc2Sc2ccccc2CNC(=O)[C@H](Cc2ccccc2)NC(=O)C2(CCCC2)NC1=O [compound 108]	1000 to 10000	–
CC[C@@H]1NCCOc2ccccc2CCCNC(=O)[C@@H](Cc2ccccc2)NC(=O)[C@@H](C)N(C)C1=O [compound 117]	10 to 100	–
CC(C)C[C@@H]1NCCOc2ccccc2CCCNC(=O)[C@@H](Cc2ccccc2)NC(=O)[C@@H](C)N(C)C1=O [compound 118]	10 to 100	–
C[C@@H]1C(=O)N[C@H](Cc2ccccc2)C(=O)NCCCc2ccccc2OCCNC2(CC2)C(=O)N1C [compound 121]	> 10000	–
O=C1NC2(CCCC2)C(=O)N[C@@H](Cc2ccccc2)C(=O)NC/C=C/c2ccccc2OCCN[C@H]1Cc1ccc(F)cc1 [compound 125]	> 10000	–
COc1ccc(C[C@@H]2NCCOc3ccccc3/C=C/CNC(=O)[C@H](Cc3ccccc3)NC(=O)C3(CCCC3)NC2=O)cc1 [compound 127]	100 to 1000	–
O=C1NC/C=C/c2ccccc2OCCN[C@@H](C(c2ccccc2)c2ccccc2)C(=O)NC2(CCCC2)C(=O)N[C@H]1Cc1ccccc1 [compound 129]	> 10000	–
O=C1NC2(CCCC2)C(=O)N[C@@H](Cc2ccccc2)C(=O)NC/C=C/c2ccccc2OCCN[C@H]1Cc1cccc2ccccc12 [compound 130]	1000 to 10000	–
